From PMC6658998, “Pharmacological characterization of the seven human NOX isoforms and their inhibitors” (Redox Biology, 2019)

Assays:
NOX4 [1] = biological target: NOX4 (Homo sapiens, UniProt Q9NPH5); conditions: NOX4 T-rex cells, tetracycline 24 h, antimycin A 1 μM, compound 10 μM
Protocol: For NOX4-dependent oxygen consumption, NOX4 T-Rex HEK cells (50,000 cells/well) were plated onto poly-L-lysine coated XF24 cell culture microplates (Seahorse), treated with 1 μg/mL tetracycline and incubated at 37 °C with 5% CO2 for 24 h. One hour prior to assay, the medium was changed to DMEM without carbonate buffer supplemented with 10 mM HEPES, pH 7.4 and the cells were then incubated for 1 h at 37 °C in normal atmosphere. The baseline oxygen consumption rate (OCR) was recorded 3 times before rotenone (1 μM) and antimycin A (1 μM) were added to eliminate mitochondrial oxygen consumption and 1 OCR cycle was measured. Test compounds were added in the second injection and 4 OCR cycles were recorded. Each OCR cycle was as follows: 3 min mixing; 2 min waiting; 3 min measuring. The basal OCR in tetracycline-induced cells (prior to addition of blockers of mitochondrial respiration) was considered as 100%. Data were analysed using Wave XFe 2.1.0 software. At least three independent experiments were performed for each compound.

all NOX isoforms = conditions: compound 10 μM, NOX1-5, DUOX1, DUOX2 cell lines
NOX2 [2] = biological target: T1, NOX2 (Homo sapiens, UniProt P04839); assay: NOX2 activity in purified PLB-985 membranes (WST-1, CBA); format: biochemical
T1 sequence (P04839 2-570 limits assumed): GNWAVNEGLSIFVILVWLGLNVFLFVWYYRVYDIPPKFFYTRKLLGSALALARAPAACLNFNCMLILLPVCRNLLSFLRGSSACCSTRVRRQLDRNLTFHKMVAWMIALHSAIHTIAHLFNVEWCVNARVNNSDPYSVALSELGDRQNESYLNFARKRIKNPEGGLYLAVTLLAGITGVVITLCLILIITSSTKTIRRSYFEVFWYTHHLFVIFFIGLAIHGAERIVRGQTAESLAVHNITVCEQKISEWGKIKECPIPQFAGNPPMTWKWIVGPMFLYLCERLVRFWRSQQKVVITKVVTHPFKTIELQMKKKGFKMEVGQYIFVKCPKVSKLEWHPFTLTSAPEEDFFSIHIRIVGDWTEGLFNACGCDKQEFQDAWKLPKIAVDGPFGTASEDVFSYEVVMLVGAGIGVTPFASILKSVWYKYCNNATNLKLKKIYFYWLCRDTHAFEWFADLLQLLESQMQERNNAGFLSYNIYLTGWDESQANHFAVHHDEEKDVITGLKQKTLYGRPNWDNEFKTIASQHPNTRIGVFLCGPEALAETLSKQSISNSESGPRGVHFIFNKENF
Protocol: PLB-985 (40 dishes 150 cm^2) were grown in suspension and differentiated by addition of 1.25% DMSO for 72 h. HEK293 cells expressing NOX5 (40 dishes 150 cm^2) were amplified until confluence and detached using trypsin-EDTA for 5 min followed by addition of 2 vol of pre-warmed complete growth media to inactivate trypsin. Collected cells were centrifuged at 4000 ×g for 10 min. Cells were washed with PBS and centrifuged at 1500 ×g for 10 min. The supernatant was discarded and the pellet was placed at −80 °C for at least 30 min. […] Samples were sonicated two times for 25 s (level 7, Branson Sonifier 250). Cell debris were removed by centrifugation at 800 ×g for 10 min at 4 °C. […] Protein concentration was determined with Bradford reagent using BSA as a standard. […]
NOX2 containing membranes were used at 10 μg/mL of proteins in a reaction mixture containing 90 nM recombinant RacQ61L, 45 nM recombinant p67Np47 N chimeric protein (consisting of a fusion of the N-termini of human p67phox [residues 1–210] and p47phox [residues 1–286]), 90 μM SDS, 1 μM FAD-Na2 and 1 mM WST-1 or 800 μM CBA in PBS. The reaction mixture was dispensed in 96-well plates (transparent for WST-1 absorbance, black for CBA fluorescence) at 80 μL/well and the plate was incubated for 5 min at 37 °C. […]

in vitro = conditions: human
Protocol: The effect of the compounds on cell viability was obtained using the Calcein-AM assay. […] Cells suspensions were prepared in HBSS. Cells were preincubated at 50,000 cells/well with compounds for 10 min at room temperature before addition of 4 μM Calcein-AM. Then the plate was incubated at 37 °C for 1 h in the dark. Intracellular Calcein fluorescence was measured using Spectramax Paradigm (Molecular Devices) at 485 nm excitation and 520 nm emission.

NOX5 [3] = biological target: T2, NOX5 (Homo sapiens, UniProt Q96PH1); assay: NOX5 activity in purified membranes of HEK293 cells expressing NOX5 (WST-1, CBA); format: biochemical; conditions: for Inhibitory activity in NOX5 membrane assay: WST-1 / CBA, concentration not given
T2 construct: expressed in transfected cells
T2 sequence (Q96PH1 19-737 isoform Q96PH1-3 limits assumed): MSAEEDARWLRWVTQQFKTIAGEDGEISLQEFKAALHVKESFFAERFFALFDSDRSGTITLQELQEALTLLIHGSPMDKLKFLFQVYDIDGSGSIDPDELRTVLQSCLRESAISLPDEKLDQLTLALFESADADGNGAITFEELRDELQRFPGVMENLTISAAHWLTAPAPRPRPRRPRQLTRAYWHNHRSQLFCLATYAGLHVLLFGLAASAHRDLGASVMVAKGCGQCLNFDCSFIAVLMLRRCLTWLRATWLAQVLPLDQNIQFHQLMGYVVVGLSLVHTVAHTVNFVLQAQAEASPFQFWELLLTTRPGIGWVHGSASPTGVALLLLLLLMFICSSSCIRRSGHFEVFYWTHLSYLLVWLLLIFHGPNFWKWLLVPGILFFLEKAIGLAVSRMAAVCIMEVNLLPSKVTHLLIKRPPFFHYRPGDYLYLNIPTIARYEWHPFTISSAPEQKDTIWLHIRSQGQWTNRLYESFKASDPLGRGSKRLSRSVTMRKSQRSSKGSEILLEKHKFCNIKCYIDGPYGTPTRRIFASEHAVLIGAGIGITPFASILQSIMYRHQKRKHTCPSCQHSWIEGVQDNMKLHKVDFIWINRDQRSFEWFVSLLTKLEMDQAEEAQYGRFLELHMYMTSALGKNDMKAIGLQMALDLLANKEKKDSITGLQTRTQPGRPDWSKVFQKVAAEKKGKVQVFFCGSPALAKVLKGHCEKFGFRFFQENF
Protocol: PLB-985 (40 dishes 150 cm^2) were grown in suspension and differentiated by addition of 1.25% DMSO for 72 h. HEK293 cells expressing NOX5 (40 dishes 150 cm^2) were amplified until confluence and detached using trypsin-EDTA for 5 min followed by addition of 2 vol of pre-warmed complete growth media to inactivate trypsin. Collected cells were centrifuged at 4000 ×g for 10 min. Cells were washed with PBS and centrifuged at 1500 ×g for 10 min. The supernatant was discarded and the pellet was placed at −80 °C for at least 30 min. […] Samples were sonicated two times for 25 s (level 7, Branson Sonifier 250). Cell debris were removed by centrifugation at 800 ×g for 10 min at 4 °C. The supernatant was laid on a sucrose gradient consisting of a bottom layer of 1 mL 40% sucrose and an upper layer of 1 mL 17% sucrose. Ultracentrifugation was performed at 150,000 ×g in SW60 rotor for 30 min at 4 °C. Following separation, the upper cytosolic fraction was discarded and the cloudy membrane fraction was collected. Protein concentration was determined with Bradford reagent using BSA as a standard. Small aliquots were kept at −80 °C.
NOX2 containing membranes were used at 10 μg/mL of proteins in a reaction mixture containing 90 nM recombinant RacQ61L, 45 nM recombinant p67Np47 N chimeric protein (consisting of a fusion of the N-termini of human p67phox [residues 1–210] and p47phox [residues 1–286]), 90 μM SDS, 1 μM FAD-Na2 and 1 mM WST-1 or 800 μM CBA in PBS. The reaction mixture was dispensed in 96-well plates (transparent for WST-1 absorbance, black for CBA fluorescence) at 80 μL/well and the plate was incubated for 5 min at 37 °C. The reaction was initiated by addition of 20 μL/well NADPH at final concentration 100 μM. NOX5 containing membranes were used at 20 μg/mL of proteins in a reaction mixture containing 50 mM HEPES pH 7.4, 1 mM NTA, 1 mM EDTA, 1 mM BAPTA, 1 mM MgCl2, 5.5 μM phosphatidic acid, 1 μM FAD, 700 μM CaCl2 and 1 mM WST-1 or 800 μM CBA in Milli-Q H2O. The reaction mixture was dispensed in 96-well plates (transparent for absorbance, black for fluorescence) at 80 μL/well and 20 μL/well of NADPH at final concentration of 200 μM were added to initiate the reaction.
Reported NOX inhibitors were added in 96 well plates at a single concentration as indicated to which mix containing membrane fractions and all components of the NOX2 or NOX5 membrane assays were added except NADPH. After 2–3 min incubation, 200 μM NADPH was added to start the reaction.

NOX5 [4] = biological target: NOX5; set-up: method as in PMID 27273790; conditions: documented values, measured using Amplex Red/HRP assay; cited from earlier work
NOX4 [5] = biological target: NOX4; set-up: method as in PMID 27273790; conditions: documented values, measured using Amplex Red/HRP assay; cited from earlier work
NOX1 = biological target: NOX1; set-up: method as in PMID 27273790; conditions: documented values, measured using Amplex Red/HRP assay; cited from earlier work
NOX2 [6] = biological target: NOX2; set-up: method as in PMID 27273790; conditions: documented values, measured using Amplex Red/HRP assay; cited from earlier work

NOX4 (Homo sapiens, UniProt Q9NPH5), sequence (Q9NPH5 whole entry, canonical isoform): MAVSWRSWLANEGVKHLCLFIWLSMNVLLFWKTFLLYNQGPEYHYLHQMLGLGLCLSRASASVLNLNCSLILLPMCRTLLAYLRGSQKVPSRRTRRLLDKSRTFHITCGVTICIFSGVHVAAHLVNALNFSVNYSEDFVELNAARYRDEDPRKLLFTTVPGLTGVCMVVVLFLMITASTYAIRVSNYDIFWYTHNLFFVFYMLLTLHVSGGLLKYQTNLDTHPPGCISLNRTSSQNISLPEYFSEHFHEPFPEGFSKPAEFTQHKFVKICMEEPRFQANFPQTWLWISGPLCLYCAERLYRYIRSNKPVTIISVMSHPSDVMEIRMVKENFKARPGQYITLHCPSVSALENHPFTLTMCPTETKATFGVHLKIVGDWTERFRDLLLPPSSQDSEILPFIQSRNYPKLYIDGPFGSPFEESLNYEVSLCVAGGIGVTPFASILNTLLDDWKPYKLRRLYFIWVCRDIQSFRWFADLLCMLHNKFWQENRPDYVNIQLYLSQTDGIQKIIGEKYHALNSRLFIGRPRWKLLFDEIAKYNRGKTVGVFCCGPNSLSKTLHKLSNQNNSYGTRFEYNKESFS
NOX4 (Homo sapiens, UniProt Q9NPH5), sequence (P13498 whole entry partner, canonical isoform): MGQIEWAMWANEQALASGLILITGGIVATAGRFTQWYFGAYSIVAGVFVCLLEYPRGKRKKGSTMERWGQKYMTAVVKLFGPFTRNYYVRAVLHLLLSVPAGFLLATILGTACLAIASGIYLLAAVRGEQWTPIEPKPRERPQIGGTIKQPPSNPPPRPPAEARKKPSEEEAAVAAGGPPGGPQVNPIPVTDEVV

c1ccc2c(c1)[I+]c1ccccc1-2 [DPI, diphenylene iodonium chloride]
Inhibition of NOX4-dependent (non-mitochondrial) oxygen consumption (NOX4 [1]): inhibited | Inhibition of NOX isoforms in cell lines (all NOX isoforms): inhibits all NOX isoforms | Inhibitory activity in NOX2 membrane assay (NOX2 [2]; WST-1 / CBA, concentration not given): potently inhibited | CC50 at 1 h (in vitro): > 50 µM | Inhibitory activity in NOX5 membrane assay (NOX5 [3]): potently inhibited

O=c1c2ccccc2[se]n1-c1ccccc1 [Ebselen, ebselen]
Inhibition of NOX2-dependent signal in membranes (NOX2 [2]; compound 50 μM): inhibited | CC50 at 1 h (in vitro; HEK/T-REx cells): 1.8 µM | Inhibition of NOX5-dependent signal in membranes (NOX5 [3]; compound 50 μM): inhibited

COc1cc(C(C)=O)ccc1O [Apocynin, apocynin]
CC50 at 1 h (in vitro): > 50 µM

COc1cc(C(C)=O)cc(-c2cc(C(C)=O)cc(OC)c2O)c1O [Diapocynin, diapocynin]
CC50 at 1 h (in vitro; HEK/T-REx cells): > 50 µM

Cc1c2c(=O)n(-c3ccccc3Cl)[nH]c2cc(=O)n1Cc1ccccn1 [GKT136901]
Ki NOX5 (NOX5 [4]): nanomolar range | Ki NOX4 (NOX4 [5]): nanomolar range | Ki NOX1 (NOX1): nanomolar range | CC50 at 1 h (in vitro; HEK/T-REx cells): > 50 µM | Ki NOX2 (NOX2 [6]): micromolar range

c1ccc(Cn2nnc3c(Sc4nc5ccccc5o4)ncnc32)cc1 [VAS2870, 3-benzyl-7-(2-benzoxazolyl)thio-1,2,3-triazolo[4,5-d]pyrimidine]
Inhibitory activity in NOX5 membrane assay (NOX5 [3]): no inhibitory activity | Inhibitory activity in NOX5 membrane assay (NOX5 [3]; listed as VAS280): some level of inhibition
